In patent publication US8853406B2, “Substituted phenylenediamines as inhibitors of the interaction between MDM2 and P53” (Janssen Pharmaceutica NV, priority 2007, dated 2014):

Experiments:
[1] = tested on: p53 in A2780 cells; experiment: p53 ELISA in A2780 cells (capacity to preserve p53); format: cell-based; conditions: lowest dose giving at least 140% of the p53 value of the control, 16 hours
Protocol: The capacity of the compounds to preserve p53 in A2780 cells was measured with the p53 enzyme linked immunosorbent assay. The p53 assay is a “sandwich” enzyme immunoassay employing two polyclonal antibodies. A polyclonal antibody, specific for the p53 protein, has been immobilized onto the surface of the plastic wells. Any p53 present in the sample to be assayed will bind to the capture antibody. The biotinylated detector polyclonal antibody also recognizes p53 protein, and will bind to any p53, which has been retained by the capture antibody. The detector antibody, in turn, is bond by horseradish peroxidase-conjugated streptavidin. The horseradish peroxidase catalyses the conversion of the chromogenic substrate o-phenylene diamine, the intensity of which is proportional to the amount of p53 protein bond to the plate. The colored reaction product is quantified using a spectrophotometer. Quantitation is achieved by the construction of a standard curve using known concentrations of purified recombinant HIS tagged p53 protein (see example C.1.).
A2780 cells (ATCC) were cultivated in RPMI 1640 supplemented with 10% fetal calf serum (FCS), 2 mM L-glutamine and gentamycin at 37° C. in a humidified incubator with 5% CO2.
A2780 cells were seeded at 20.000 cells per well in a 96 well plate, cultured for 24 hours and treated with compound for 16 hours at 37° C. in a humidified incubator. After incubation, the cells were washed once with phosphate-buffered saline and 30 μl, per well, low salt RIPA buffer (20 mM tris, pH7.0, 0.5 mM EDTA, 1% Nonidet P40, 0.5% DOC, 0.05% SDS, 1 mM PMSF, 1 μg/ml aprotinin and 0.5 μ/ml leupeptin) was added. Plates were placed on ice for 30 minutes to complete the lysis. p53 protein was detected in de lysates by using the sandwich ELISA, described below.
High binding polystyrene EIA/RIA 96 well plates (Costar 9018) were coated with the capture antibody pAb1801 (Abcam ab28-100) at a concentration of 1 μg/ml in coating buffer (0.1 M NaHCO3 pH8.2), 50 μl per well. The antibody was allowed to adhere overnight at 4° C. Coated plates were washed once with phosphate-buffered saline (PBS)/0.05% Tween 20 and 300 μl of blocking buffer (PBS, 1% bovine serum albumins (BSA)) was added, for an incubation period of 2 hours at room temperature. Dilutions of purified recombinant HIS tagged p53 protein, ranging from 3-200 ng/ml, were made in blocking buffer and used as standards.
Plates were washed twice with PBS/0.05% Tween 20 and blocking buffer or standards were added at 80 μl/well. To the standards, 20 μl of lysis buffer was added. The samples were added to the other wells at 20 μl lysate/well. After an overnight incubation at 4° C., plates were washed twice with PBS/0.05% Tween 20. Aliquots of 100 μl secondary polyclonal antibody p53(FL-393) (Tebubio, sc-6243) at a concentration of 1 μg/ml in blocking buffer were added to each well and allowed to adhere for 2 hours at room temperature. Plates were washed three times with PBS/0.05% Tween 20. Detection antibody anti-rabbit HRP (sc-2004, Tebubio) at 0.04 μg/ml in PBS/1% BSA was added and incubated for 1 hour at room temperature. Plates were washed three times with PBS/0.05% Tween 20 and 100 μl of substrate buffer was added (substrate buffer was prepared shortly before use by adding 1 tablet of 10 mg o-phenylene diamine (OPD) from Sigma and 125 μl 3% H2O2 to 25 ml OPD buffer: 35 mM citric acid, 66 mM Na2HPO4, pH5.6). After 5 to 10 minutes, colour reaction was stopped by adding 50 μl stop buffer (1 M H2SO4) per well. The absorbance at dual wavelengths of 490/655 nm was measured using a Biorad micro plate reader and the results were then analyzed.
For each experiment, controls (containing no drug) and a blank incubation (containing no cells or drugs) were run in parallel. The blank value was subtracted from all control and sample values. For each sample, the value of p53 (in absorbance units) was expressed as the percentage of the value for p53 present in the control. […]

[2] = tested on: Male NMRI mice; experiment: Ro-4-1284 antagonism in mice (drug induced neurological effects); format: in vivo; conditions: for activity on observations in Ro-4-1284 antagonism test: 80 mg/kg, oral administration, 3 animals; for drug induced neurological side effects: Ro-4-1284 antagonism in mice
Protocol: The test is a modification of a procedure described by Colpaert et al. (1975).^3 Male NMRI mice (22±3 g) were housed in macrolon observation cages (L×W×H: 11×12×17 cm; n=3 per cage). At the start of the experiments immediately before test compound administration, the initial body temperature of the mice was measured with a precision of 0.1° C. by inserting the thermo-sensitive probe (1.0 mm diameter) of an electric thermometer (Comark) to a constant depth of 3 cm into the esophagus until a stable reading was obtained. The right eye pupil diameter was measured with a graduated microscope and expressed in 1/24 mm units. Fifteen min after test compound administration, the mice were challenged with Ro-4-1284 (10 mg/kg, s.c.). Ro-4-1284 is a reserpine-like vesicular monoamine transport (VMAT-2) inhibitor, which rapidly depletes secretory vesicles.^3,4 Fifteen, 30 and 60 min after challenge, the mice were scored for palpebral opening (0, 1, 2, 3, 4, 5) and locomotor activity (−1, 0, 1, 2, 3). At the 60-min interval, immediately after the scoring of overt behavior, the right eye pupil diameter and the esophageal temperature were measured again. Abnormal phenomena such as intensive sniffing, chewing, rearing, hyperemia, piloerection, salivation, tremors, convulsions and death were noted (the latter phenomena were also noted when occurring before Ro-4-1284 administration). Criteria for drug-induced effects: reversal of ptosis: palpebral opening score >1 at 15, 30 or 60 min (2.7, 0.5 and 0% false positive controls, respectively; n>350); induction of prostration: score −1 for locomotion at 15, 30 or 60 min (never observed in controls); reversal of hypomotility: score >0 for locomotion at 15, 30 and 60 min (2.2, 0.8 and 0% false positive controls, respectively); reversal of miosis: pupil diameter >5 units at 60 min (0.8% false positives); potentiation of hypothermia: temperature decrease (over the 1-h time interval)>9.0° C. (1.4% false positives); reversal of hypothermia: temperature decrease <3.0° C. (1.8% false positives).
According to the standard procedure, R0-4-1284 is injected 15 min following subcutaneous or oral administration and observations start 15 min later. Doses are initially given to 3 animals. When at least 2 out of the 3 animals show activity for at least one of the observations, the compound is considered active.

Row | SMILES | A2780 p53-elisa LAD ([1]; listed as drawing 35) | activity on observations in Ro-4-1284 antagonism test [2] | drug induced neurological side effects [2] | A2780 p53-elisa LAD ([1]; listed as drawing 36)
1 | Cc1cc(Nc2ccnc3c2CCC3O)ccc1NCCc1c[nH]c2c(C)cccc12 (single isomer, unassigned) [Compound No. 1] | 3.00E-08 | did not show activity on any observation on any animal | No | 
2 | Cc1cc(Nc2ccnc3c2CCC3O)ccc1NCCc1c[nH]c2c(C)cccc12 (single isomer, unassigned) [Compound No. 2] |  | did not show activity on any observation on any animal | No | 1.00E-07
